Results published in ChEMBL document CHEMBL2380268, “Characterization of the receptor binding residues of kisspeptins by positional scanning using peptide photoaffinity probes” (Bioorg Med Chem Lett, 2013).
Calls of active or inactive are those of the source. No cut-off for these calls is given here. Where a SMILES comes first, the peptide text is derived from it. The star is where a group is joined. X1 = [N-]=[N+]=Nc1ccc(C(=O)NCCN2C(=O)CC(*)C2=O)c(O)c1; Biotin = O=C1N[C@H]2[C@H](CS[C@H]2CCCCC(=O)*)N1

Assays:
Type in all cases: cell-based
[1] = molecular target: KiSS-1 receptor (Homo sapiens) (UniProt Q969F8); assay: Binding affinity to GPR54 in HEK293 cells at 500 nM incubated for 1 hr followed by UV irradiation for 30 secs by Western blot analysis
[2] = molecular target: KiSS-1 receptor (Homo sapiens) (UniProt Q969F8); assay: Binding affinity to GPR54 in HEK293 cells at 500 nM incubated for 1 hr followed by UV irradiation for 30 secs by Western blot analysis in presence of PNGase F
[3] = molecular target: KiSS-1 receptor (Homo sapiens) (UniProt Q969F8); assay: Competitive binding affinity to GPR54 in HEK293 cells at 500 nM incubated for 1 hr followed by UV irradiation for 30 secs by Western blot analysis in presence of unlabeled Kp-10

Sequence of KiSS-1 receptor (Homo sapiens) (Q969F8 whole entry): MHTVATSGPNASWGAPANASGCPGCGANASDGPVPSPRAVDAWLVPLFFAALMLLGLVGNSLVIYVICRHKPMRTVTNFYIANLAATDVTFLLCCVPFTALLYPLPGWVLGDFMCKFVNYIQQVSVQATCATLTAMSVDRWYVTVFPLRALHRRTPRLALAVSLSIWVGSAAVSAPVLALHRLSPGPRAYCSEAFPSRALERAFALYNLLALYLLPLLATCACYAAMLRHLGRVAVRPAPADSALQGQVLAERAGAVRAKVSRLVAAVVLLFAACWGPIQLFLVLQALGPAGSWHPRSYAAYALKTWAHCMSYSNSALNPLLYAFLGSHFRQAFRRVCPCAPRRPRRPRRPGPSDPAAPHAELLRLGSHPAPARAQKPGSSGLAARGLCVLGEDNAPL

Activity [1] | Activity [2] | Activity [3] | Structure (SMILES)
inactive |  |  | CC(C)C[C@H](NC(=O)CNC(=O)[C@H](Cc1ccccc1)NC(=O)[C@H](CO)NC(=O)[C@H](CC(N)=O)NC(=O)[C@H](Cc1c[nH]c2ccccc12)NC(=O)[C@H](CC(N)=O)NC(=O)[C@H](CSC1CC(=O)N(CCNC(=O)c2ccc(N=[N+]=[N-])cc2O)C1=O)NC(=O)[C@H](CC(N)=O)NC(=O)[C@@H]1CCCN1C(=O)[C@H](CC(C)C)NC(=O)[C@H](CC(=O)O)NC(=O)CCCC[C@@H]1SC[C@@H]2NC(=O)N[C@@H]21)C(=O)N[C@@H](CCCNC(=N)N)C(=O)N[C@@H](Cc1ccccc1)C(N)=O (some centres undefined) (Biotin-DLPNC(X1)NWNSFGLRF-NH2)
inactive |  |  | CC(C)C[C@H](NC(=O)CNC(=O)[C@H](Cc1ccccc1)NC(=O)[C@H](CO)NC(=O)[C@H](CC(N)=O)NC(=O)[C@H](Cc1c[nH]c2ccccc12)NC(=O)[C@H](CSC1CC(=O)N(CCNC(=O)c2ccc(N=[N+]=[N-])cc2O)C1=O)NC(=O)[C@H](Cc1ccc(O)cc1)NC(=O)[C@H](CC(N)=O)NC(=O)[C@@H]1CCCN1C(=O)[C@H](CC(C)C)NC(=O)[C@H](CC(=O)O)NC(=O)CCCC[C@@H]1SC[C@@H]2NC(=O)N[C@@H]21)C(=O)N[C@@H](CCCNC(=N)N)C(=O)N[C@@H](Cc1ccccc1)C(N)=O (some centres undefined) (Biotin-DLPNYC(X1)WNSFGLRF-NH2)
 | inactive | inactive | CC(C)C[C@H](NC(=O)CNC(=O)[C@H](Cc1ccccc1)NC(=O)[C@H](CO)NC(=O)[C@H](CC(N)=O)NC(=O)[C@H](CSC1CC(=O)N(CCNC(=O)c2ccc(N=[N+]=[N-])cc2O)C1=O)NC(=O)[C@H](CC(N)=O)NC(=O)[C@H](Cc1ccc(O)cc1)NC(=O)[C@H](CC(N)=O)NC(=O)[C@@H]1CCCN1C(=O)[C@H](CC(C)C)NC(=O)[C@H](CC(=O)O)NC(=O)CCCC[C@@H]1SC[C@@H]2NC(=O)N[C@@H]21)C(=O)N[C@@H](CCCNC(=N)N)C(=O)N[C@@H](Cc1ccccc1)C(N)=O (some centres undefined) (Biotin-DLPNYNC(X1)NSFGLRF-NH2)
